Results on 19 molecules are retold here after patent US7348412B1, “Ouabain-specific monoclonal antibodies” (priority 1999, dated 2008).

Holding throughout (set-up): species or system A/J mice
One assay concerns 5A12 mAb. Particulars: free analogue 0.00035-200 μM inhibiting binding of mAb 5A12 to Oua-BGG. How it is done: (§1) Competition ELISA was used first to determine the relative affinity of each mAb for Oua and Dig. The 96-well PVC plates were coated with 50 μl of 5 μg/ml Oua-BGG in PBSA. First we determined the Ab concentration which was not in excess of immobilized antigen. Using the direct binding assay described above, the concentration of Ab at which 50% binding was achieved was ascertained. Inhibition of binding of Abs to Oua-BGG was determined by adding 25 μl Ab (concentrations as determined above) and 25 μl of free Oua (0.001-200 μM, 2-fold dilutions). Percent inhibition is the ratio (OD450 in the presence of 1% BSA−OD450 in the presence of Oua)/(OD450 in the presence of 1% BSA)×100. The relative affinity (IC50) is the Oua concentration that inhibits 50% of the binding of Ab to Oua-BGG.
Competition ELISA was used to determine the cross reactivity of the mAbs with different digitalis glycosides (Oua, Dig, gitoxin and digitoxin and their derivatives listed in Tables I and II) and with endogenous steroid hormones (cortisone, corticosterone and progesterone). In these assays binding of mAbs to Oua-BGG was determined in the presence or absence of various concentrations (0.00035-200 μM) of free digitalis glycosides and steroid hormones as described above. […]

A further assay concerns 26-10 mAb. Particulars: free analogue 0.00035-200 μM inhibiting binding of mAb 26-10 to Oua-BGG. Here is the method:
as §1
(§2) Competition ELISA was used to determine the cross reactivity of the mAbs with different digitalis glycosides (Oua, Dig, gitoxin and digitoxin and their derivatives listed in Tables I and II) and with endogenous steroid hormones (cortisone, corticosterone and progesterone). In these assays binding of mAbs to Oua-BGG was determined in the presence or absence of various concentrations (0.00035-200 μM) of free digitalis glycosides and steroid hormones as described above.
(§3) Inhibition assays were performed to identify clones that produce mAbs, the binding of which to Oua-BGG could be inhibited with free Oua at μM concentrations. Abs were titrated in direct binding assays to determine the concentration equivalent to 35-50% binding to Oua-BGG. Binding of Abs to Oua-BGG was determined in the presence or absence of 0.00035-200 μM of free Oua. Ab binding was detected using HRP-goat anti-mouse Ab. […] Percentage inhibition was calculated as described in Materials and Methods.

Another assay relates to 1-10 mAb. Particulars: free analogue 0.00035-200 μM inhibiting binding of mAb 1-10 to Oua-BGG. Here is the method: as §1, §2, §3
The test system of another assay is 7-1 mAb. Particulars: free analogue 0.00035-200 μM inhibiting binding of mAb 7-1 to Oua-BGG. Here is the method:
as §1, §2, §3

As a reminder, the IC50 is the concentration needed to halve the response being measured.

Turning to `CC(=O)O[C@H]1C[C@]2(O)[C@@H]3CC[C@@H]4C[C@@H](O[C@H]5C[C@H](O)[C@H](O[C@H]6C[C@H](O)[C@H](O[C@H]7C[C@H](O)[C@H](O)[C@@H](C)O7)[C@@H](C)O6)[C@@H](C)O5)CC[C@]4(C)[C@H]3CC[C@]2(C)[C@H]1C1=CC(=O)OC1` [16-acetylgitoxin], the IC50 in the assay with 5A12 mAb is more than 100 µM; in the assay on 26-10 mAb, 0.5 µM; in the assay with 1-10 mAb, more than 100 µM; in the assay on 7-1 mAb, more than 100 µM.
With `CC(=O)O[C@H]1CC[C@]2(C=O)[C@H]3CC[C@]4(C)[C@@H](C5=CC(=O)OC5)CC[C@]4(O)[C@@H]3CC[C@]2(O)C1` [Acetylstrophanthidin], the IC50 in the assay with 5A12 mAb came to 2 µM; in the assay with 26-10 mAb it was 0.2 µM; in the assay on 1-10 mAb, 6 µM; with 7-1 mAb, 6 µM.
Consider `CO[C@@H]1[C@H](O)[C@@H](O[C@@H]2C[C@H]3CC[C@@H]4[C@H](CC[C@]5(C)[C@@H](C6=CC(=O)OC6)CC[C@]45O)[C@@]3(C)[C@H](O)C2)O[C@@H](C)[C@@H]1O` [Acovenoside], for which the IC50 is 5 µM in the assay on 5A12 mAb, 0.2 µM in the assay with 26-10 mAb, 8 µM in the assay with 1-10 mAb and 8 µM with 7-1 mAb.
In the case of `C[C@@H]1O[C@@H](O[C@H]2CC[C@]3(C=O)[C@H]4CC[C@]5(C)[C@@H](C6=CC(=O)OC6)CC[C@]5(O)[C@@H]4CC[C@]3(O)C2)[C@H](O)[C@H](O)[C@H]1O` [Convallatoxin], the IC50 with 5A12 mAb is 2 µM; in the assay with 26-10 mAb it was 0.1 µM; in the assay with 1-10 mAb it was 3 µM; in the assay on 7-1 mAb it was 3 µM.
As to `C[C@]12C[C@H](O)[C@H]3[C@@H](CCC4=CC(=O)CC[C@@]43C)[C@@H]1CC[C@@H]2C(=O)CO` [Corticosterone], the IC50 in the assay on 5A12 mAb, with 26-10 mAb, in the assay on 1-10 mAb and in the assay on 7-1 mAb was more than 100 µM each time.
For `C[C@]12CCC(=O)C=C1CC[C@@H]1[C@@H]2C(=O)C[C@@]2(C)[C@H]1CC[C@]2(O)C(=O)CO` [Cortisone], the concentration for half-maximal inhibition (IC50) was more than 100 µM in the assay with 5A12 mAb, 100 µM in the assay on 26-10 mAb, more than 100 µM in the assay on 1-10 mAb and more than 100 µM with 7-1 mAb.
`C[C@]12CC[C@H](O)C[C@H]1CC[C@@H]1[C@@H]2CC[C@]2(C)[C@@H](C3=CC(=O)OC3)CC[C@]12O` [Digitoxigenin]: the IC50 is 4 µM in the assay on 5A12 mAb, 0.04 µM in the assay on 26-10 mAb, 4 µM in the assay on 1-10 mAb and 4 µM in the assay with 7-1 mAb.
Consider `C[C@H]1O[C@@H](O[C@H]2[C@@H](O)C[C@H](O[C@H]3[C@@H](O)C[C@H](O[C@H]4CC[C@@]5(C)[C@H](CC[C@@H]6[C@@H]5CC[C@]5(C)[C@@H](C7=CC(=O)OC7)CC[C@]65O)C4)O[C@@H]3C)O[C@@H]2C)C[C@H](O)[C@@H]1O` [Digitoxin], for which the IC50 with 5A12 mAb was determined as 3 µM; in the assay with 26-10 mAb, 0.02 µM; in the assay on 1-10 mAb, 3 µM; in the assay with 7-1 mAb, 3 µM.
For `CC(=O)O[C@H]1CC[C@@]2(C)[C@H](CC[C@@H]3[C@@H]2C[C@@H](OC(C)=O)[C@]2(C)[C@@H](C4=CC(=O)OC4)CC[C@]32O)C1` [Digoxigenin-3,12-diacetate], the IC50 with 5A12 mAb is more than 100 µM; in the assay on 26-10 mAb, 6 µM; in the assay on 1-10 mAb, more than 100 µM; with 7-1 mAb it was more than 100 µM.
For the molecule `C[C@H]1O[C@@H](O[C@H]2[C@@H](O)C[C@H](O[C@H]3[C@@H](O)C[C@H](O[C@H]4CC[C@@]5(C)[C@H](CC[C@@H]6[C@@H]5C[C@@H](O)[C@]5(C)[C@@H](C7=CC(=O)OC7)CC[C@]65O)C4)O[C@@H]3C)O[C@@H]2C)C[C@H](O)[C@@H]1O` [Digoxin], the IC50 in the assay with 5A12 mAb is more than 100 µM; in the assay with 26-10 mAb, 0.006 µM; in the assay on 1-10 mAb, more than 100 µM; in the assay on 7-1 mAb it was more than 100 µM.
`CC(=O)OC1CCC2(C)C(CCC3C2CCC2(C)C(C4=CC(=O)OC4)C(OC(C)=O)CC32O)C1` (stereo not shown) [Gitoxigenin-3,16-diacetate]: the IC50 with 5A12 mAb, with 26-10 mAb, in the assay on 1-10 mAb and with 7-1 mAb was more than 100 µM throughout.
In the case of `C[C@H]1O[C@@H](O[C@H]2[C@@H](O)C[C@H](O[C@H]3[C@@H](O)C[C@H](O[C@H]4CC[C@@]5(C)[C@H](CC[C@@H]6[C@@H]5CC[C@]5(C)[C@@H](C7=CC(=O)OC7)[C@@H](O)C[C@]65O)C4)O[C@@H]3C)O[C@@H]2C)C[C@H](O)[C@@H]1O` [Gitoxin], the IC50 in the assay with 5A12 mAb is 100 µM; in the assay on 26-10 mAb, 1.5 µM; in the assay with 1-10 mAb it was more than 100 µM; in the assay on 7-1 mAb, more than 100 µM.
Turning to `C[C@H]1O[C@@H](O[C@H]2CC[C@]3(C=O)[C@H]4CC[C@]5(C)[C@@H](C6=CC(=O)OC6)CC[C@]5(O)[C@@H]4CC[C@]3(O)C2)C[C@H](O)[C@@H]1O` [Helveticoside], the IC50 in the assay with 5A12 mAb is 150 µM; in the assay with 26-10 mAb it was 0.2 µM; in the assay with 1-10 mAb it was 150 µM; with 7-1 mAb, 150 µM.
With `CC(=O)O[C@H]1C[C@]2(O)[C@@H]3CC[C@@H]4C[C@@H](O)CC[C@]4(C)[C@H]3CC[C@]2(C)[C@H]1C1=CC(=O)OC1` [Oleandrigenin], the IC50 with 5A12 mAb, in the assay with 26-10 mAb, in the assay on 1-10 mAb and in the assay on 7-1 mAb was more than 100 µM in each case.
`CO[C@H]1C[C@H](O[C@H]2CC[C@@]3(C)[C@H](CC[C@@H]4[C@@H]3CC[C@]3(C)[C@@H](C5=CC(=O)OC5)[C@@H](OC(C)=O)C[C@]43O)C2)O[C@@H](C)[C@@H]1O` [Oleandrin]: the IC50 in the assay with 5A12 mAb, with 26-10 mAb, in the assay on 1-10 mAb and in the assay with 7-1 mAb was more than 100 µM each time.
For the molecule `C[C@]12C[C@@H](O)[C@H]3[C@@H](CC[C@]4(O)C[C@@H](O)C[C@@H](O)[C@]34CO)[C@@]1(O)CC[C@@H]2C1=CC(=O)OC1` [Ouabagenin], the IC50 in the assay with 5A12 mAb amounted to 16 µM; in the assay on 26-10 mAb it was 0.4 µM; with 1-10 mAb, 30 µM; with 7-1 mAb, 30 µM.
`C[C@@H]1O[C@@H](O[C@H]2C[C@@H](O)[C@]3(CO)[C@H]4[C@H](O)C[C@]5(C)[C@@H](C6=CC(=O)OC6)CC[C@]5(O)[C@@H]4CC[C@]3(O)C2)[C@H](O)[C@H](O)[C@H]1O` [Ouabain]: the IC50 came to 10 µM in the assay with 5A12 mAb, 0.37 µM in the assay on 26-10 mAb, 25 µM in the assay on 1-10 mAb and 20 µM with 7-1 mAb.
For the molecule `CC(=O)[C@H]1CC[C@H]2[C@@H]3CCC4=CC(=O)CC[C@]4(C)[C@H]3CC[C@]12C` [Progesterone], the IC50 is more than 100 µM in the assay on 5A12 mAb, 2 µM in the assay on 26-10 mAb, more than 100 µM in the assay with 1-10 mAb and more than 100 µM in the assay with 7-1 mAb.
`C[C@]12CC[C@H]3[C@@H](CC[C@]4(O)C[C@@H](O)CC[C@]34C=O)[C@@]1(O)CC[C@@H]2C1=CC(=O)OC1` [Strophanthidin]: the half-maximal inhibitory concentration (IC50) in the assay with 5A12 mAb was found to be 4 µM; in the assay on 26-10 mAb it was 0.2 µM; in the assay with 1-10 mAb, 10 µM; in the assay on 7-1 mAb it was 10 µM.
